Results on 16 compounds are retold here after article PMC11900313, “Exploring the Potential of Coumarin Derivatives on Serotonin Receptors 5-HT1A and 5HT2A” (International Journal of Molecular Sciences, 2025).

Structures are written as SMILES. Values joined by “and” are separate entries in the source; they are usually repeats but may differ in a detail not shown here. Equal values may be shown once. Read-outs that look alike come from different tables or passages of the source.

Broadly, the Ki is a dissociation constant, usually derived from enzyme kinetics or from competition with a known ligand. The IC50 is the concentration at which inhibition is half-maximal.

In assay [1] the target is T1, 5-HT2A receptor (Rattus norvegicus, UniProt P14842).
T1 construct: from tissue; host or cells: Sprague-Dawley rat frontal cortex membranes
Nature of the assay: 5-HT2A competitive radioligand binding assay with [3H]ketanserin, frontal cortex membranes. The arrangement: species or system Sprague–Dawley rats.
Experimental: (§1) Sprague–Dawley rats were decapitated under isoflurane anesthesia. Brains were rapidly removed and placed on ice. Hippocampi (for the 5-HT1A assay) or frontal cortices (for the 5-HT2A assay) were dissected on a Petri dish. The tissue from 10 rats was homogenized in 30 vol. homogenization buffer (50 mM Tris-HCl, pH = 4.7, 1 mM EDTA, 1mM dithiothreitol) with a hand held Teflon-glass homogenizer. The homogenate was centrifuged at 48,000× g at 4 °C for 15 min. The pellet was suspended and homogenized in homogenization buffer and incubated for 10 min at 36 °C. The centrifugation and suspension steps were repeated twice. The final pellet was homogenized in 5 vol. 50 mM Tris-HCl, pH = 7.4 buffer and stored at −80 °C for no longer than 6 months.
(§2) Non-specific binding was determined with 10 μM serotonin. The final DMSO concentration in the assay was 5%. After incubation, the reaction mixture was deposited with the FilterMate-96 Harvester (Revvity, Waltham, MA, USA) onto Unifilter® GF/C plates (Revvity, Waltham, MA, USA) presoaked in 0.4% PEI for 1 h. Each well was washed with 2 mL of 50 mM Tris-HCl (pH 7.4) buffer to separate bound ligands from free. Plates were left to dry overnight. Then, 35 µL of Microscint-20 scintillation fluid (Revvity, Waltham, MA, USA) was added to each filter well and left to equilibrate for 2 h. Filter-bound radioactivity was counted in a MicroBeta^2 LumiJet scintillation counter (Revvity, Waltham, MA, USA). Binding curves were fitted with one site non-linear regression. The binding affinity (Ki) for each compound was calculated from the EC50 values with the Cheng–Prusoff equation from two separate experiments.

In assay [2] the target is T2, 5-HT1A receptor (Rattus norvegicus, UniProt P19327).
T2 construct: from tissue; host or cells: Sprague-Dawley rat hippocampus membranes
T2 sequence (P19327 1-422): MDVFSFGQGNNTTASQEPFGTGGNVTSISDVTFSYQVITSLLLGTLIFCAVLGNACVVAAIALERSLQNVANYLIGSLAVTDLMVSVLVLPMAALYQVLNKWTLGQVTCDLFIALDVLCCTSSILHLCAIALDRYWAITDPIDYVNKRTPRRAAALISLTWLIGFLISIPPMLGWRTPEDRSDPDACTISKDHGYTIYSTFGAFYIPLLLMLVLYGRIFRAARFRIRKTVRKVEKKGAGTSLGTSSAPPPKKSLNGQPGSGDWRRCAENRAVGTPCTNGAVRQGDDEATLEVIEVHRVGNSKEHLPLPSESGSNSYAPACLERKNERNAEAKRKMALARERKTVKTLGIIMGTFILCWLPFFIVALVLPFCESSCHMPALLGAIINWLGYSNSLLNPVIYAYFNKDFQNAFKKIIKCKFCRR
Nature of the assay: Antagonist activity at 5-HT1A receptors, [35S]GTPγS assay with 8-OH-DPAT stimulation. Type of assay: biochemical, Sprague–Dawley rats. As to conditions: for IC50: antagonist activity, [35S]GTPγS. For orientation: GTPγS is a poorly hydrolysed GTP analogue; its binding reports G protein activation.
Experimental: as §1
Then, hippocampal membrane homogenates (15 μg/mL) were added to each well, and the mixture was incubated for 90 min. at 37 °C in a total volume of 250 µL. Non-specific binding was determined with 10 µM of unlabeled GTPγS. The reaction was terminated by vacuum filtration onto GF/C Unifilter Plates (Revvity, Waltham, MA, USA) presoaked with 50 mM Tris-HCl (pH = 7.4) for 1 h with the FilterMate Harvester® (Revvity, Waltham, MA, USA). The samples were then rapidly washed with 2 mL of 50 mM Tris-HCl (pH = 7.4) buffer. The Unifilter plates were dried overnight at RT. After drying, 35 µL of EcoScint-20 scintillant (Revvity, Waltham, MA, USA) was added to each well. Radioactivity was counted in a Trilux MicroBeta^2 counter (Revvity, Waltham, MA, USA). […] The curves were fitted with a one-site non-linear regression model to determine inhibitory potency (IC50). The experiments were repeated twice.

Assay [3] addresses T2, 5-HT1A receptor. The assay can be described thus: 5-HT1A competitive radioligand binding assay with [3H]8-OH-DPAT, hippocampal membranes. To be noted: [3H]8-OH-DPAT, hippocampal membranes; 95% CI in brackets. The arrangement: species or system Sprague–Dawley rats.
Experimental: as §1, §2
Assay [4] has as its system 5-HT1A receptor. More on the design: method as in PMID 36769117. To be noted: previous study; cited from earlier work.
For assay [5], the target named is 5-HT1A receptor. To be noted: earlier study; cited from earlier work.
Assay [6] concerns the target 5-HT2A receptor. To be noted: earlier study; cited from earlier work.
The mark [7] stands for this setting: read-out: 5-HT2A Ki (nM, 95% CI).
Setting [8] is: 1 µM 8-OH-DPAT, 95% CI in brackets, read-out: 5-HT1A IC50 (µM, 95% CI).

T1 sequence (P14842 whole entry): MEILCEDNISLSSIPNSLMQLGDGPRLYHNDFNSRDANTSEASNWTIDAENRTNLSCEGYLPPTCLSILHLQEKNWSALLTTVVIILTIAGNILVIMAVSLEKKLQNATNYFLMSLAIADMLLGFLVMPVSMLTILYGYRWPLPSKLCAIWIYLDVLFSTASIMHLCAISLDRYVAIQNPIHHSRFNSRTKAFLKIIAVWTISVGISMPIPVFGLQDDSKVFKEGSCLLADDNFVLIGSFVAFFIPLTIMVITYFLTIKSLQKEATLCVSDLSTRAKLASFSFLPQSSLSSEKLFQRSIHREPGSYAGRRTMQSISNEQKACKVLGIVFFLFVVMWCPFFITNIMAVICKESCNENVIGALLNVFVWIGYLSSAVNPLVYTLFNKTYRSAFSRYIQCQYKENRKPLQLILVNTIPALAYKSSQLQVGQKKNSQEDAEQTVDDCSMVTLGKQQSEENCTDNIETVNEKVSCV

`COc1cccc(N2CCN(CC(O)COc3ccc4ccc(=O)oc4c3)CC2)c1` (centres unmarked) [Compound 14, 7-(2-Hydroxy-3-(4-(3-methoxyphenyl)piperazin-1-yl)propoxy)-2H-chromen-2-one]: the results for the Ki on 5-HT2A receptor [1] (setting [7]) and at 5-HT1A receptor [3] were 68 nM and 135 nM, respectively. Also, the IC50 on 5-HT1A receptor [2] (setting [8]) turned out to be 112 µM.

With `COc1cccc(N2CCN(CCCCOc3cc4oc(=O)cc(C)c4cc3C(C)=O)CC2)c1` [6-acetyl-7-{4-[4-(3-methoxyphenyl)piperazin-1-yl]butoxy}-4-methylcoumarin], the “5-HT1A receptor activity (agonist/antagonist)” value with 5-HT1A receptor [4] is reported as “agonist”.

With `COc1ccccc1N1CCN(CC(O)COc2c(C(C)=O)c(C)cc3oc(=O)cc(C)c23)CC1` (centres unmarked) [Compound 7, 6-Acetyl-5-(2-hydroxy-3-(4-(2-methoxyphenyl)piperazin-1-yl)propoxy)-4,7-dimethyl-2H-chromen-2-one], the inhibitory constant (Ki) turned out to be 4150 nM on 5-HT2A receptor [1] (setting [7]) and 90 nM at 5-HT1A receptor [3]. In addition, the IC50 at 5-HT1A receptor [2] (setting [8]) came to 2.4 µM.

With `COc1cccc(N2CCN(CC(O)COc3ccc4c(C)cc(=O)oc4c3)CC2)c1` (centres unmarked) [Compound 10, 7-(2-Hydroxy-3-(4-(3-methoxyphenyl)piperazin-1-yl)propoxy)-4-methyl-2H-chromen-2-one], the Ki on 5-HT2A receptor [1] (setting [7]) was 260 nM; on 5-HT1A receptor [3], 87 nM. Further, the IC50 on 5-HT1A receptor [2] (setting [8]) was found to be 89.5 µM.

In the case of `COc1ccccc1N1CCN(CCCOc2ccc3c(C)cc(=O)oc3c2C(C)=O)CC1` [8-acetyl-7-{3-[4-(2-methoxyphenyl)piperazin-1-yl]propoxy}-4-methylcoumarin], the Ki at 5-HT1A receptor [5] was 0.6 nM; at 5-HT2A receptor [6] it was 8 nM.

Regarding `COc1cccc(N2CCN(CC(O)COc3cc4oc(=O)cc(C)c4cc3C(C)=O)CC2)c1` (centres unmarked) [Compound 2, 6-Acetyl-7-(2-hydroxy-3-(4-(3-methoxyphenyl)piperazin-1-yl)propoxy)-4-methyl-2H-chromen-2-one], the Ki on 5-HT2A receptor [1] ([3H]ketanserin, frontal cortex membranes, 95% CI in brackets) came to 83 nM; at 5-HT1A receptor [3], 196 nM. The IC50 at 5-HT1A receptor [2] (setting [8]) is 58.5 µM and 59 µM.

With `COc1ccccc1N1CCN(CC(O)COc2ccc3c(C)cc(=O)oc3c2)CC1` (centres unmarked) [Compound 9, 7-(2-Hydroxy-3-(4-(2-methoxyphenyl)piperazin-1-yl)propoxy)-4-methyl-2H-chromen-2-one], the figures for the Ki on 5-HT2A receptor [1] (setting [7]) and on 5-HT1A receptor [3] were 291 nM and 245 nM, respectively. Also, the IC50 at 5-HT1A receptor [2] (setting [8]) was 2.42 µM and 2.4 µM.

Consider `COc1cccc(N2CCN(CC(O)COc3c(C(C)=O)c(C)cc4oc(=O)cc(C)c34)CC2)c1` (centres unmarked) [Compound 8, 6-Acetyl-5-(2-hydroxy-3-(4-(3-methoxyphenyl)piperazin-1-yl)propoxy)-4,7-dimethyl-2H-chromen-2-one], for which the Ki on 5-HT2A receptor [1] (setting [7]) was 115 nM; at 5-HT1A receptor [3], 1780 nM. Besides, the IC50 on 5-HT1A receptor [2] (setting [8]) is 16.2 µM.

As to `COc1cccc(N2CCN(CC(O)COc3cc(=O)oc4ccccc34)CC2)c1` (centres unmarked) [Compound 4, 4-(2-Hydroxy-3-(4-(3-methoxyphenyl)piperazin-1-yl)propoxy)-2H-chromen-2-one], the figures for the Ki at 5-HT2A receptor [1] (setting [7]) and on 5-HT1A receptor [3] were 315 nM and 190 nM, respectively. In addition, the concentration for half-maximal inhibition (IC50) on 5-HT1A receptor [2] (setting [8]) was found to be 10 µM.

As for `COc1ccccc1N1CCN(CC(O)COc2ccc3ccc(=O)oc3c2)CC1` (centres unmarked) [Compound 13, 7-(2-Hydroxy-3-(4-(2-methoxyphenyl)piperazin-1-yl)propoxy)-2H-chromen-2-one], the figures for the Ki at 5-HT2A receptor [1] (setting [7]) and on 5-HT1A receptor [3] were 18 nM and 222 nM, respectively. Also, the IC50 at 5-HT1A receptor [2] (setting [8]) was found to be 1.43 µM.

`COc1cccc(N2CCN(CC(O)COc3cc(C)cc4oc(=O)cc(C)c34)CC2)c1` (centres unmarked) [Compound 6, 5-(2-Hydroxy-3-(4-(3-methoxyphenyl)piperazin-1-yl)propoxy)-4,7-dimethyl-2H-chromen-2-one]: the Ki on 5-HT2A receptor [1] (setting [7]) worked out at 662 nM; on 5-HT1A receptor [3], 176 nM. Further, the IC50 on 5-HT1A receptor [2] (setting [8]) is 6.5 µM.

Consider `COc1ccccc1N1CCN(CC(O)COc2ccc3c(C)cc(=O)oc3c2C(C)=O)CC1` (centres unmarked) [Compound 11, 8-Acetyl-7-(2-hydroxy-3-(4-(2-methoxyphenyl)piperazin-1-yl)propoxy)-4-methyl-2H-chromen-2-one], for which the Ki at 5-HT2A receptor [1] (setting [7]) is 6160 nM. For the same compound, the IC50 at 5-HT1A receptor [2] (given in nM in text, read-out: 5-HT1A IC50) amounted to 0.043 µM. The 5-HT1A functional profile result at 5-HT1A receptor [2] (functional assays) is given as “significant 5-HT1A antagonistic profile”.

On to `COc1ccccc1N1CCN(CC(O)COc2cc(=O)oc3ccccc23)CC1` (centres unmarked) [Compound 3, 4-(2-Hydroxy-3-(4-(2-methoxyphenyl)piperazin-1-yl)propoxy)-2H-chromen-2-one], for which the Ki was determined as 4010 nM at 5-HT2A receptor [1] (setting [7]) and 243 nM on 5-HT1A receptor [3]. For the same compound, the IC50 at 5-HT1A receptor [2] (setting [8]) is 67.8 µM and 68 µM.

For the compound `COc1ccccc1N1CCN(CC(O)COc2cc3oc(=O)cc(C)c3cc2C(C)=O)CC1` (centres unmarked) [Compound 1, 6-Acetyl-7-(2-hydroxy-3-(4-(2-methoxyphenyl)piperazin-1-yl)propoxy)-4-methyl-2H-chromen-2-one], the figures for the Ki at 5-HT2A receptor [1] (setting [7]) and at 5-HT1A receptor [3] were 1850 nM and 243 nM, respectively. For the same compound, at 5-HT1A receptor [2] (setting [8]), the IC50 turned out to be 331 µM.

Take `COc1cccc(N2CCN(CC(O)COc3ccc4c(C)cc(=O)oc4c3C(C)=O)CC2)c1` (centres unmarked) [Compound 12, 8-Acetyl-7-(2-hydroxy-3-(4-(3-methoxyphenyl)piperazin-1-yl)propoxy)-4-methyl-2H-chromen-2-one]: the results for the Ki at 5-HT2A receptor [1] (setting [7]) and on 5-HT1A receptor [3] were 67 nM and 264 nM, respectively.

For the compound `COc1ccccc1N1CCN(CC(O)COc2cc(C)cc3oc(=O)cc(C)c23)CC1` (centres unmarked) [Compound 5, 5-(2-Hydroxy-3-(4-(2-methoxyphenyl)piperazin-1-yl)propoxy)-4,7-dimethyl-2H-chromen-2-one], the Ki came to 1180 nM on 5-HT2A receptor [1] (setting [7]) and 90 nM on 5-HT1A receptor [3]. For the same compound, the IC50 at 5-HT1A receptor [2] (setting [8]) was 14.7 µM.
